Laboratory results published in PMC12500691 (Frontiers in Cellular and Infection Microbiology, 2025).

Tests used:
SARS-CoV-2 ORF7a = SARS-CoV-2 ORF7a (Severe acute respiratory syndrome coronavirus 2, UniProt P0DTC7); assay: biochemical; assay type: binding, SARS-CoV-2 (Wuhan variant)
SARS-CoV-2 proteins = assay type: binding, SARS-CoV-2 (Wuhan variant)

SARS-CoV-2 ORF7a, sequence (P0DTC7 16-96): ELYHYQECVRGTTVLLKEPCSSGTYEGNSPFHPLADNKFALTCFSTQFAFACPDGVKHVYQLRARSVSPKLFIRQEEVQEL

Molecule | Kd (SARS-CoV-2 ORF7a) [µM] | interaction with the SARS-CoV-2 proteins (SARS-CoV-2 proteins)
CC[C@H](C)[C@H](NC(=O)[C@H](CCCCN)NC(=O)[C@H](CCC(=O)O)NC(=O)[C@H](CCCCN)NC(=O)[C@H](CO)NC(=O)[C@H](CCCCN)NC(=O)[C@H](CCCNC(=N)N)NC(=O)[C@H](Cc1ccccc1)NC(=O)[C@H](Cc1ccccc1)NC(=O)[C@H](CC(=O)O)NC(=O)CNC(=O)[C@H](CC(C)C)NC(=O)[C@@H](N)CC(C)C)C(=O)NCC(=O)N[C@@H](CCCCN)C(=O)N[C@@H](CCC(=O)O)C(=O)N[C@@H](Cc1ccccc1)C(=O)N[C@@H](CCCCN)C(=O)N[C@@H](CCCNC(=N)N)C(=O)N[C@H](C(=O)N[C@H](C(=O)N[C@@H](CCC(N)=O)C(=O)N[C@@H](CCCNC(=N)N)C(=O)N[C@H](C(=O)N[C@@H](CCCCN)C(=O)N[C@@H](CC(=O)O)C(=O)N[C@@H](Cc1ccccc1)C(=O)N[C@@H](CC(C)C)C(=O)N[C@@H](CCCNC(=N)N)C(=O)N[C@@H](CC(N)=O)C(=O)N[C@@H](CC(C)C)C(=O)N[C@H](C(=O)N1CCC[C@H]1C(=O)N[C@@H](CCCNC(=N)N)C(=O)N[C@H](C(=O)N[C@@H](CCC(=O)O)C(=O)N[C@@H](CO)C(=O)O)[C@@H](C)O)C(C)C)[C@@H](C)CC)C(C)C)[C@@H](C)CC [LL-37] | 0.14 ± 0.08 | 
synthetic control peptide: synthetic control peptide with an alpha-helical structure and a length of 29 amino acids, purchased from Biomatik (DKDGDLKTQIEKLWTEVNALKEIQALQTVCL) |  | did not show an interaction with the SARS-CoV-2 proteins
